# From patent publication US20030186334A1, “KTS-disintegrins” (Temple University - Of the Commonwealth System of Higher …, priority 2001, published 2003)
# Legend:
# α1β1 integrin = target: T1, α1β1 integrin (Mus musculus, UniProt P09055+Q3V3R4); assay: adhesion of B16F10 cells to collagen IV; format: cell-based; details: α1β1, Coll IV
# T1 construct: endogenous in cells; host or cells: B16F10 cells
# αIIbβ3 integrin = target: T2, αIIbβ3 integrin (Homo sapiens, UniProt P05106+P08514); assay: adhesion of A5 cells to fibrinogen; format: cell-based
# T2 construct: expressed in transfected cells; host or cells: A5 cells
# Experimental: (§1) Adhesive ligands for the selected integrins consisted of collagen IV (0.2 μg/well), collagen I, fibronectin, or vascular cell adhesion molecule-1 (VCAM-1). Adhesive ligands in 0.02 M acetic acid were immobilized overnight at 4° C. on a 96-well plate. Plates were then blocked with 1% (w/v) BSA (bovine serum albumin) in Hank's Balanced Salt Solution (HBSS) containing 3 mM Mg^2+ at room temperature for 1-2 hours to prevent cells from non-specifically binding to the plates. α1K562, α2K562, K562, A5, and Jurkat cells expressing the α1β1, α2β1, α5β1, αIIbβ3, and α4β1 integrins respectively were labeled by incubation with 12.5 μM 5-chloromethylfluorescein diacetate (CMFDA) in HBSS for 15 minutes at 37° C. CMFDA labeled cells were then pelleted, washed and resuspended in HBSS buffer containing 3 mM Mg^2+ and 1% (w/v) BSA. […] Plates were then incubated at 37° C. for 30 minutes as indicated in Table 5 and washed three times with HBSS containing 3 mM Mg^2+ and 1% (w/v) BSA to remove unbound cells. Bound cells were lysed using 0.5% (v/v) Triton X-100 in H2O. Fluorescent CMFDA released by lysis of adherent cells in a given well was read using a Cytofluor 2350 fluorescence plate reader.
# (§2) The effect of obtustatin, viperisrastatin, echistatin, and eristostatin on the binding of selected integrins to their adhesive ligands was evaluated using the cell adhesion assay described in Example 6. The integrin-expressing cells, integrins and corresponding adhesive ligands, and the results of the cell adhesion assay are shown in Table 6.
# α1β1 and α2β1 integrins = assay: adhesion of unblocked MV3 cells to immobilized collagen IV; format: cell-based, human
# Experimental: The α1β1 integrin specific inhibitory effect of obtustatin was confirmed using human melanoma MV3 cells. MV3 cells express both the α1β1 and α2β1 integrins. MV3 cells adhere strongly to collagen IV through α1β1 and α2β1 integrin-mediated interactions.
# Collagen IV (0.2 μg/well) in 0.02 M acetic acid was immobilized overnight at 4° C. on a 96-well plate. Plates were then blocked with 1% (w/v) BSA (bovine serum albumin) in Hank's Balanced Salt Solution (HBSS) containing 3 mM Mg^2+ at room temperature for 1-2 hours to prevent cells from non-specifically binding to the plates. […] were labeled by incubation with 12.5 μM 5-chloromethylfluorescein diacetete (CMFDA) in HBSS for 15 minutes at 37° C. CMFDA labeled MV3 cells were then pelleted, washed and resuspended in HBSS buffer containing 3mM Mg^2+ and 1% (w/v) BSA. 1×10^5 cells were then added to each well in the presence (10 μg/ml) or absence of the α1 integrin subunit specific AJH10 mAb and α2 integrin subunit specific P1E6 mAb as indicated in FIG. 5. Obtustatin was added at the concentrations indicated in FIG. 5 simultaneously with the mAbs. The plates were then incubated at 37° C. for 30 minutes and washed three times with HBSS containing 3 mM Mg^2+ and 1% (w/v) BSA to remove unbound cells. […] Fluorescent CMFDA released by lysis of adherent cells in a given well was read using a Cytofluor 2350 fluorescence plate reader. […]
# [1] = tested on: dermal microvascular endothelial cells (EC); assay: apoptosis by caspase-3 levels in dermal microvascular endothelial cells; format: cell-based
# Experimental: (§3) The mechanisms of the cancer-suppressing effect observed for obtustatin were investigated as follows. Dermal microvascular endothelial cells (EC) and human melanoma cells (MV3) were cultured and exposed to TNF-α, vincristine and obtustatin. (TNF-α and vincristine are compounds which induce cell death by apoptosis in both normal and cancerous cells.) Control cells received only vehicle. The extent of apoptosis was measured by determining caspase-3 levels.
# [2] = tested on: human melanoma cells (MV3); assay: apoptosis by caspase-3 levels in melanoma MV3 cells; format: cell-based
# Experimental: as §3
# MV3 human melanoma cells = assay: MV3 melanoma cell migration through HUVEC layer; format: cell-based; details: 3 hours
# Experimental: Cell migration through an endothelial cell layer is an important event in cancer cell metastasis. The effect of obtustatin on melanoma cell migration through an endothelial cell layer in vitro was evaluated as follows. Human umbilical vein endothelial cells (HUVECs) of 3-7 passages were purchased from Cascade Biologics (Portland, Oreg.). The HUVECs were seeded into 8.0 μm pore size FALCON® HTS FluoroBlok™ inserts (Becton Dickinson, Franklin Lakes, N.J.) in serum-containing endothelial cell growth medium. The inserts were placed into the wells of a 24-well plate (Becton-Dickinson), and the HUVECs allowed to grow to confluence on the insert over 72 hours. The interior of the FluoroBlok™ inserts is referred to below as the “upper chamber,” and the interior of the well in which the insert sits is referred to as the “lower chamber.”
# Twenty-four hours before the assay, the upper chambers were washed with serum-free medium, and new medium containing TNF-α (3 ng/ml) was added to activate the HUVECs. […] After 3 hours incubation at 37° C. in 5% CO2, the extent of MV3 migration into the bottom chambers was assessed using a bottom-reading Cytofluor 2350 (Millipore Inc., Bedford Mass.). The amount of fluorescence in the lower chambers is directly related to the number of MV3 cells which have migrated through the HUVEC layer from the upper chamber. […]
# α2β1 integrin = α2β1 integrin (Homo sapiens, UniProt P05556+P17301); assay: adhesion of α2K562 cells to collagen I; format: cell-based; design: expressed in transfected cells; host or cells: α2K562 cells
# Experimental: as §1, §2
# T1 sequence (Q3V3R4 29-1179): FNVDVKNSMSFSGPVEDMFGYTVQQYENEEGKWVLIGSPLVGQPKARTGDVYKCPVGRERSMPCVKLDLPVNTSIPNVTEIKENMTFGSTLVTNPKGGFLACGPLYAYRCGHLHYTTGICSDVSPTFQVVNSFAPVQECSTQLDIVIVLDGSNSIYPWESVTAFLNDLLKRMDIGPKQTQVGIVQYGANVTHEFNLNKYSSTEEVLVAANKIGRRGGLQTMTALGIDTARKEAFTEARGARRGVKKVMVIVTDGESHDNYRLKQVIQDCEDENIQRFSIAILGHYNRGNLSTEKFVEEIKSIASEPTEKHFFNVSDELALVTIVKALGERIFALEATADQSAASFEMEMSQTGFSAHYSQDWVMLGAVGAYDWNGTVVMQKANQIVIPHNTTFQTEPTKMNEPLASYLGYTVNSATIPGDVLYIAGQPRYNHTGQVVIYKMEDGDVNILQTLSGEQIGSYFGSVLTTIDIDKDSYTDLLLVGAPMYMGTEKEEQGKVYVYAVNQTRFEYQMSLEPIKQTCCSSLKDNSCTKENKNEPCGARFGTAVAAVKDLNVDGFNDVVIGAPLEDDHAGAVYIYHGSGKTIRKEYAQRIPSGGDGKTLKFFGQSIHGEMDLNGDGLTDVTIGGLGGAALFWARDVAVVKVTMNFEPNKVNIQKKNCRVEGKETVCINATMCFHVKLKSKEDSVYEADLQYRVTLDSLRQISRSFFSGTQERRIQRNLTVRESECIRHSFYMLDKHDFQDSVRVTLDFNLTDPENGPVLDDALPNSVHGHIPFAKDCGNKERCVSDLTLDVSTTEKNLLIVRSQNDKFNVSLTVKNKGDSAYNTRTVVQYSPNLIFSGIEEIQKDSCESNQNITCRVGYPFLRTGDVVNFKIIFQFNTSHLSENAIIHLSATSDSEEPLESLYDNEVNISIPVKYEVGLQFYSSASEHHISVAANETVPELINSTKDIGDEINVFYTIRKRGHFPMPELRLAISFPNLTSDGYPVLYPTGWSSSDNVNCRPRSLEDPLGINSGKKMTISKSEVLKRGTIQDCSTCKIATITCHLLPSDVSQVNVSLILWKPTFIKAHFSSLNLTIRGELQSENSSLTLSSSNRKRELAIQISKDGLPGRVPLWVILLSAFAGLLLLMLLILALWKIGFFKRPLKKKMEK
# T1 sequence (P09055 21-798): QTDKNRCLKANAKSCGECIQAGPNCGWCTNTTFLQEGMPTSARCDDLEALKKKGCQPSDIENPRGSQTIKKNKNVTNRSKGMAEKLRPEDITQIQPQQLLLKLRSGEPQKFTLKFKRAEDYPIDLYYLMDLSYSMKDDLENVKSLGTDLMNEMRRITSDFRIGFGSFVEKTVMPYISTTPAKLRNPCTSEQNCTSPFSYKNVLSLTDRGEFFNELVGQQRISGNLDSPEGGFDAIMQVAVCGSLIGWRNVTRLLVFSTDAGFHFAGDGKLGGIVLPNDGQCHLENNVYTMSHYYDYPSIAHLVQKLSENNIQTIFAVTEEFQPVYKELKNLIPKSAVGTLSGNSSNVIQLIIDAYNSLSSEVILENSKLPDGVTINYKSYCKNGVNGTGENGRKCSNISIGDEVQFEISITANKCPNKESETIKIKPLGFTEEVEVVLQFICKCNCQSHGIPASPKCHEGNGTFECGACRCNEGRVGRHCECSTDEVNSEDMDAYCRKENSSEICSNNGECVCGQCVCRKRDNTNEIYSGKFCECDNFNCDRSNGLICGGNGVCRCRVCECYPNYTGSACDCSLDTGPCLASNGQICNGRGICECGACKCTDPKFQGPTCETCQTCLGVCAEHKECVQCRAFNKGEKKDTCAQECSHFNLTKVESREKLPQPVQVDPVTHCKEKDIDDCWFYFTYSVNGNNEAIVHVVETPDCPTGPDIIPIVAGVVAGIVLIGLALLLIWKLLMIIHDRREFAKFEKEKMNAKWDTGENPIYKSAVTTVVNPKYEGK
substance,measurement,setting,value
Obtustatin (CTTGPCCRQCKLKPAGTTCWKTSLTSHYCTGKSCDCPLYPG),IC50,α1β1 integrin,0.2 nM
same,IC50,αIIbβ3 integrin,> 10 µM
same,inhibition of adhesion of MV3 cells to collagen IV,α1β1 and α2β1 integrins,comparatively insensitive
same,apoptosis (caspase-3),[1],induced significant apoptosis
same,apoptosis (caspase-3),[2],not in MV3 cells
same,migration of MV3 cells through the HUVEC layer,"MV3 human melanoma cells; collagen IV or FGF as chemoattractants, 0 to 500 nM",inhibited migration
same,concentration giving essentially complete inhibition of MV3 cell migration,MV3 human melanoma cells; through HUVEC layer,above 200 nM
same,IC50,α2β1 integrin,> 10 µM
